pKd: −log10 of the molar value. “And” between values parts separate entries of the source, which are not always exact repeats. Equal values may be shown once.
Assays:
[1] = target: MTAP:phosphate complex; conditions: read-out: dissociation constant (Kd); binding to MTAP:phosphate, ternary complex; ref [9],[10],[11]; cited from earlier work
[2] = target: T1, human MTAP (apo) (Homo sapiens, UniProt Q13126); experiment: Isothermal titration calorimetry of ligands binding to apo MTAP in Tris buffer; conditions: for ΔHTris [n] / −TΔSTris: apo MTAP; for ΔHTris [n]: Tris buffer pH 7.4; for −TΔSTris: Tris; for ΔHcorrection share of total binding free energy: binding to apo MTAP; for ΔHcorrection / −TΔScorrection: without protonation/deprotonation effects
T1 sequence (Q13126 1-283): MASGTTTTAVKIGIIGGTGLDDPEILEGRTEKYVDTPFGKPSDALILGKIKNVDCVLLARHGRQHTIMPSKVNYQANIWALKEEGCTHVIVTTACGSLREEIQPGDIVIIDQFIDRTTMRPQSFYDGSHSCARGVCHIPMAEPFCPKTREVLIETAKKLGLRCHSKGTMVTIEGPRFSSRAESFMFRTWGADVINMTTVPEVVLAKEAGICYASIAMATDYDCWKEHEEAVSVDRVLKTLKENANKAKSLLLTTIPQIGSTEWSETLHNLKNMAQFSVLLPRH

[3] = target: T1, human MTAP (apo); experiment: Isothermal titration calorimetry of ligands binding to apo MTAP in Hepes buffer; conditions: for ΔΔG relative to MTA; contribution of the 9-deazaadenine (protonated N7): binding to apo MTAP, ΔG of MTA subtracted
[4] = test system: MTAP; conditions: steady-state kinetic analysis; ref [7],[12]; cited from earlier work
[5] = test system: human lung cancer; conditions: immunodeficient mice; ref [4],[5]; cited from earlier work
[6] = test system: human head and neck cancer; conditions: immunodeficient mice; ref [4],[5]; cited from earlier work
[7] = test system: MTAP:phosphate complex; experiment: Binding of TS analogues to the MTAP:phosphate complex; design: species or system human; conditions: from 40 nM to 90 pM
[8] = all three sites or first two sites
[9] = all three sites [3] or first two sites [2]
[10] = apo MTAP, Hepes, all three sites or first-listed set of sites
[11] = apo MTAP, Hepes, second-listed set of sites

Compound | pKd [1] | NumberProton (protons released from the binding of ligand to MTAP) [2, 8] | ΔHTris - ΔHHepes [2, 8] [kJ/mol] | ΔHTris [n] [2, 9] | −TΔSTris [2, 8] [kJ/mol] | ΔHcorrection share of total binding free energy [2] [%] | ΔHcorrection [2, 8] | −TΔScorrection [2, 8] [kJ/mol] | ΔG [3, 10] | ΔHHepes [3, 10] [kJ/mol] | −TΔSHepes [3, 10] | ΔΔG relative to MTA; contribution of the 9-deazaadenine (protonated N7) [3] [kJ/mol] | ΔG [3, 11] [kJ/mol] | ΔHHepes [3, 11] [kJ/mol] | −TΔSHepes [3, 11] [kJ/mol] | other results
CSCC1NC(c2c[nH]c3c(N)ncnc23)[C@@H](O)[C@H]1O (stereo partly shown) [MT-ImmA] | 9.00 | 0.5 and 0.50 ± 0.01 | -13.5 ± 0.38 | −12.82 ± 0.05 [3] kcal/mol | 13 ± 0.42 | 74 | -29.9 kJ/mol and -29.9 ± 0.38 kJ/mol | -10.9 ± 0.42 | -40.6 ± 0.42 kJ/mol | -40.1 ± 0.33 | -0.42 ± 0.42 kJ/mol | -5.44 | – | – | – | –
5'-methylthioadenosine [MTA, reference compound] | – | – | – | – | – | – | – | – | -46.4 kJ/mol and -46.4 ± 1.7 kJ/mol | -4.18 ± 1.3 | -42.3 kJ/mol and -42.3 ± 2.1 kJ/mol | – | -35.1 ± 0.42 | -25.5 ± 0.84 | -9.62 ± 0.84 | Km [4]: 1.7 µM
CSC[C@H]1CN(Cc2c[nH]c3c(N)ncnc23)C[C@@H]1O [MT-DADMe-ImmA] | 10.05 | 0.2 and 0.2 ± 0.1 | -5.02 ± 3.3 | -47.7 ± 0.84 kJ/mol | 5.44 ± 1.3 | 91 | -38.5 kJ/mol and -38.5 ± 3.8 kJ/mol | -3.8 ± 3.8 | -42.3 kJ/mol and -42.3 ± 0.84 kJ/mol | -42.7 ± 3.3 | 0.42 ± 3.3 kJ/mol | -7.11 | -39.7 ± 0.42 | -13 ± 4.2 | -29 ± 4.2 | effect on human lung cancer [5]: suppresses the growth and metastases of human lung cancer; ΔHTris [n] ([2]; third site [1]): -43.1 ± 1.7 kJ/mol; −TΔSTris ([2]; third site): 3.3 ± 1.7 kJ/mol; NumberProton (protons released from the binding of ligand to MTAP) ([2]; third site): 1.1 and 1.1 ± 0.2; ΔHTris - ΔHHepes ([2]; third site): -29 ± 4.2 kJ/mol; ΔHcorrection ([2]; third site): 8.4 ± 4.2 kJ/mol; −TΔScorrection ([2]; third site): -50.2 ± 4.2 kJ/mol; effect on human head and neck cancer [6]: causes remission of human head and neck cancer; decrease of Kd, apo MTAP to ternary complex with phosphate [7]: 440 fold
O=P(O)(O)O [phosphate, potassium phosphate] | – | −0.91 ± 0.05 | 24.7 ± 1.3 | −2.77 ± 0.04 [3] kcal/mol | -15.6 ± 0.29 | – | -54.8 kJ/mol and -54.8 ± 1.7 kJ/mol | 27.6 ± 1.7 | -27.2 kJ/mol and -27.2 ± 0.25 kJ/mol | -36.4 ± 1.3 | 9.2 ± 1.3 kJ/mol | – | – | – | – | protons absorbed from the buffer on binding to apo MTAP ([2]; pH 7.4): 0.91 ± 0.05; pKd ([3]; apo MTAP, Hepes, all three sites): 4.77
Nc1ncnc2c(CN3CC(CSc4ccc(Cl)cc4)[C@H](O)C3)c[nH]c12 (stereo partly shown) [pClPhT-DADMe-ImmA] | 11.00 | – | – | – | – | – | – | – | – | – | – | – | – | – | – | –

Reference: paper PMC3870587 (Biochemistry, 2013)
